{"source": "patent US20220280625A1", "about": "(Northwestern University, priority 2019, published 2022)", "key": {"[1]": {"test_system": "choroidal angiogenesis", "assay": "Ex vivo choroidal sprouting assay", "assay_type": "cell-based", "conditions": "FIGS. 24B-24D", "experimental": "Ex vivo choroidal sprouting assay. As a first step towards determining the anti-angiogenic properties of the ABT898 PLPs, we performed an ex vivo choroidal sprouting assay. Briefly, eyes are enucleated, dissection is performed to remove the cornea, iris, lens, retina, and vitreous. The peripheral RPE-choroid-sclera complex is plated in Matrigel, angiogenesis develops spontaneously over Day 4-Day 7, and can be quantitated using reverse phase brightfield microscopy (FIG. 24A). ABT898 peptide had no effect upon choroidal angiogenesis (FIGS. 24B and 24C). Alternatively, ABT898 Ester and Amide PLPs, which are not hydrolysable, reduced angiogenesis by 24% and 81%, respectively. Cell penetrating peptides that are rich in arginine residues, aid the cellular penetration of cargo via endocytosis. In order to enhance the cellular penetration capacity and the solubility of the PLPs we modified the C-terminus with arginine moieties. […] Without wishing to be bound by any particular theory, we believe this is because the peptide alone is degraded in the Matrigel milieu. […] In addition, we performed a dose dependent analysis of growth area at Day 4 for treatment with ABT898 amide RR PLP, and the results are shown in FIG. 25.\nEx Vivo Choroidal Sprouting Assay: Anti-VEGF PLPs. […]"}, "[2]": {"target": "T1, thermolysin (Bacillus thermoproteolyticus, UniProt P00800)", "T1 sequence (P00800 233-548)": "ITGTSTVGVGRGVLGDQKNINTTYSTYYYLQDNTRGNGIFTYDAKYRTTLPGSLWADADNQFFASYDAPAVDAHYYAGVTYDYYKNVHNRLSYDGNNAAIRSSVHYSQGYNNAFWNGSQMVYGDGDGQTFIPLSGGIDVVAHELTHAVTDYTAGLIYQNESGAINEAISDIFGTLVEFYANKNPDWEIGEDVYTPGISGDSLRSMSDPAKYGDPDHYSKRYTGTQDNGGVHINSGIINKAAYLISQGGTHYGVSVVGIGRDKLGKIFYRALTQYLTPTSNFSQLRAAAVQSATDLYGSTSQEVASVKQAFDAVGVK", "assay": "Enzyme degradation kinetics of ABT898 peptide and PLP with thermolysin (HPLC)", "assay_type": "in vitro ADME", "conditions": "200 μM stock, thermolysin 0.1 μM, over 450 min; PLP = AR PLP (FIG. 26A)", "experimental": "FIGS. 26A-26B. Enzyme degradation kinetics and BLI assay. FIG. 26A. Percent enzymatic cleavage of peptide and PLP (AR PLP) upon the treatment of thermolysin (peptide:enzyme=2000:1) was monitored by HPLC over 450 min. FIG. 26B. Bio-layer interferometry data measuring the binding constant between AR PLP and CD36 receptor.\nEnzyme Degradation Kinetics. An important feature of the PLP platform is that the globular structure of peptides arranged on a polymeric scaffold impart high proteolytic resistance. We performed an enzyme resistance assay to confirm that the PLP is resistant to proteolysis as compared to the peptide alone. Both peptide and PLP stock solutions (200 μM) were treated with thermolysin enzyme (0.1 μM) and their degradation profiles were monitored using high performance liquid chromatography (HPLC). […] We calculated the area under the peak at each time point to construct the percent cleaved and plotted it against time for both peptide and PLP (FIG. 26A)."}, "[3]": {"target": "T1, thermolysin", "method": "To discern the relationship between backbone structure and peptide stability against proteolysis, enzyme kinetics of each peptide brush polymer with different backbones were measured in PBS buffer with added protease (i.e., thermolysin).\nFor enzyme-triggered cleavage experiments, the molar ratio of thermolysin to peptide was set to 1:200. Moreover, the temperature was set to 37° C. […] Then thermolysin (0.1 mg, 3.0 nmol, 1 equiv.) was added into the polymer solution which was stirred in a preheated oil bath at 37° C."}, "[4]": {"test_system": "elastase", "assay": "in vitro", "conditions": "isolated enzyme elastase, pH 7.2", "method": "Enzymatic cleavage. Elastase was chosen as a model protease since it can cleave the three glycine fragment for easy recognition of cleavage product which is also similar to the natural initial cleavage product in serum. Remaining peptide percentage was measured by the ratio between the area under the curve at each time point and the area under the curve of the first time point.\nTwenty microliters (20 μL) of elastase (1 mM), 20 μL of monomer (FIG. 9A) or polymer (FIG. 9B) (2 mM), 20 μL Tris buffer (250 mM Tris pH 7.2, 1500 mM NaCl, 500 mM CaCl2)) and 140 μL of water were added to a HPLC vial and loaded in the autosampler carousel and a sample immediately taken for injection at 1 min. Subsequently, the reaction was monitored via RP-HPLC (10-80% buffer B) with an injection every 50 minutes following the initial injection.\nThe ratio of the AUC at each time point relative to the first time point is plotted."}, "[5]": {"test_system": "elastase", "assay": "20 μL of elastase (1 mM), 20 μL Tris buffer (250 mM Tris pH 7.2, 1500 mM NaCl, 500 mM CaCl2) and 140 μL of water", "conditions": "up to 550 min"}, "[6]": {"assay": "Systolic blood pressure by tail-cuff system in mice", "assay_type": "in vivo, C57BL/6 mice", "conditions": "intraperitoneal injection, measured for 20 minutes", "experimental": "Healthy C57BL/6 mice were injected with either terlipressin peptide or terlipressin PLP and the systolic blood pressure was measured over time by employing a tail-cuff system (CODA™). The mice were anesthetized with ketamine and placed in restraints over a heated pad. Following 5 minutes of background measurements, the drugs were administrated by intraperitoneal injection (IP) and the measurements continued for another 20 minutes (limited by the effect of ketamine). The delta BP was measured and plotted as a function of time."}, "[7]": {"conditions": "human, in vivo; cited from earlier work"}}, "note": "Bridge positions count the residues as written; N and C are the ends. Square brackets hold non-standard residues; d marks the D form. Ends that are not written are not given here. Peptide text beside a SMILES is read from it. * marks the point of attachment. X1 = O=C1[C@@H]2[C@H](C(=O)N1CCCCCC(=O)*)[C@H]1C=C[C@@H]2C1; d(aIle) = CC[C@H](C)[C@@H](N)C(=O)O"}
{"compound": "ABT898 peptide: synthetic peptide GVi(allo)SQIRP which mimics the TSP1 type-1 repeat (GV[d(aIle)]SQIRP) [reference compound]", "values": [{"measurement": "effect upon choroidal angiogenesis", "setting": "[1]", "value": "no effect"}, {"measurement": "degradation by thermolysin (HPLC peak over time)", "setting": "[2]", "value": "rapid degradation"}]}
{"compound": "poly(PepNorIm15): peptide brush polymer of GPLGLAGGWGERDGS norbornene dicarboxyimide monomer, DP 15 (also: peptide is a side chain of a norbornene dicarboxyimide brush polymer, DP 15)", "values": [{"measurement": "proteolytic stability against thermolysin", "setting": "[3]", "value": "demonstrated resistance to proteolysis"}]}
{"compound": "NCCCC[C@H](NC(=O)[C@@H]1CCCN1C(=O)[C@@H]1CSSC[C@H](NC(=O)CNC(=O)CNC(=O)CNC(=O)CCCCCN2C(=O)[C@@H]3[C@H](C2=O)[C@H]2C=C[C@@H]3C2)C(=O)N[C@@H](Cc2ccc(O)cc2)C(=O)N[C@@H](Cc2ccccc2)C(=O)N[C@@H](CCC(N)=O)C(=O)N[C@@H](CC(N)=O)C(=O)N1)C(=O)NCC(N)=O", "note": "[terlipressin peptide monomer] (X1-GGGCYFQNCPKG-NH2; disulfide 4-9)", "values": [{"measurement": "remaining at 550 min, 0.2 mM", "setting": "[4]", "value": "~50", "unit": "%"}]}
{"compound": "GGGCYFQNCPKG", "values": [{"measurement": "cleaved bond", "setting": "[5]", "value": "G-C"}]}
{"compound": "NCCCC[C@H](NC(=O)[C@@H]1CCCN1C(=O)[C@@H]1CSSC[C@H](NC(=O)CNC(=O)CNC(=O)CN)C(=O)N[C@@H](Cc2ccc(O)cc2)C(=O)N[C@@H](Cc2ccccc2)C(=O)N[C@@H](CCC(N)=O)C(=O)N[C@@H](CC(N)=O)C(=O)N1)C(=O)NCC(N)=O", "note": "[terlipressin, Terlipressin] (H-GGGCYFQNCPKG-NH2; disulfide 4-9)", "values": [{"measurement": "change in systolic blood pressure over time (delta BP)", "setting": "[6]", "value": "immediate and very large increase in blood pressure, which dropped rapidly in a manner of few minutes"}, {"measurement": "distribution half-life", "setting": "[7]", "value": 8, "unit": "min"}, {"measurement": "elimination half-life", "setting": "[7]", "value": 6, "unit": "min"}]}
